# Results from patent US8399378B2, “Use of neonicotinoids in pest control” (Syngenta Crop Protection LLC, priority 1998, dated 2013).
# How the values were obtained:
# Type in all cases: in vivo
# Aphis gossypii = test: Cotton seedling spray test, action against Aphis gossypii; conditions: 20° C, 3 and 6 days; for control (percentage reduction in population, % action): spray 400 ppm; for control level: plot (b) conventional cotton seedlings, 400 ppm compound, then 400 ppm δ-endotoxin CryIIIa
# Method: (§1) Cotton seedlings on a plot (a) expressing the δ-endotoxin CryIIIa on a plot (a) and conventional cotton seedlings on a plot (b) are infected with Aphis gossypi and subsequently sprayed with a spray mixture comprising 400 ppm thiamethoxam. Immediately afterwards, plot (b) is treated with an emulsion spray mixture comprising 400 ppm of the δ-endotoxin CryIIIa. The seedlings of plot (a) and (b) are then incubated at 20° C. The test is evaluated after 3 and 6 days.
# (§2) The percentage reduction in population (% action) is determined by comparing the number of dead pests on the plants of plot (a) with that on the plants of plot (b).
# Cotton seedlings expressing the δ-endotoxin CryIA(c) on a plot (a) and conventional cotton seedlings on a plot (b) are infected with Aphis gossypii and subsequently sprayed with a spray mixture comprising 400 ppm thiamethoxam. Immediately afterwards, plot (b) is treated with an emulsion spray mixture comprising 400 ppm of the δ-endotoxin CryIIIa. The seedlings of plot (a) and (b) are then incubated at 20° C. The test is evaluated after 3 and 6 days.
# [1] = system: Frankliniella occidentalis; test: Cotton seedling spray test, action against Frankliniella occidentalis; conditions: 20° C, 3 and 6 days; for control (percentage reduction in population, % action): spray 400 ppm; for control level: plot (b) conventional cotton seedlings, 400 ppm compound
# Method: as §1, with “seedlings” for “seedlings on a plot (a)”, “Frankliniella occidentalis” for “Aphis gossypi”
# as §2
# as §1, with “seedlings” for “seedlings on a plot (a)”, “CryIa(c)” for “CryIIIa”, “Frankliniella occidentalis” for “Aphis gossypi”, “CryIa(c).” for “CryIIIa.”
# Nephotettix cincticeps = test: Rice plant spray test, action against Nephotettix cincticeps; conditions: 20° C, 21 days; for control (percentage reduction in population, % action): spray 400 ppm, 2nd and 3rd stages; for control level: plot (b) conventional rice plants, 400 ppm compound
# Method: (§3) Rice plants on a plot (a) expressing the δ-endotoxin CryIA(b) and conventional rice plants on a plot (b) are sprayed with a spray mixture comprising 400 ppm thiamethoxam. Immediately afterwards, plot (b) is treated with an emulsion spray mixture comprising 400 ppm of the δ-endotoxin CryIA(b). After the spray coating has dried on, the plants are infected with Nephotettix cincticeps of the 2nd and 3rd stages. The seedlings of plot (a) and (b) are then incubated at 20° C. The test is evaluated after 21 days.
# as §2
# as §3, with “CryIA(c)” for “CryIA(b)”, “CryIA(c).” for “CryIA(b).”
# Heliothis virescens = test: Spray test on young cotton plants, action against Heliothis virescens larvae; conditions: non-transgenic cotton treated with compound and conventional CryIIIA-toxin, each 100, 50, 10, 5, 1 ppm
# [2] = plot (a) cotton seedlings expressing δ-endotoxin CryIIIa
# [3] = plot (a) cotton seedlings expressing δ-endotoxin CryIa(c)
smiles,measurement,setting,value
"CN1COCN(Cc2cnc(Cl)s2)/C1=N\[N+](=O)[O-] [thiamethoxam, 5-(2-Chlorthiazol-5-ylmethyl)-3-methyl-4-nitroimino-perhydro-1,3,5-oxadiazin]","control (percentage reduction in population, % action)",Aphis gossypii; [2],Improved control
same,"control (percentage reduction in population, % action)",Aphis gossypii; [3],Improved control
same,control level,Aphis gossypii,≤ 60%
same,control level,Aphis gossypii; comparison arm for CryIA(c) cotton,≤ 60%
same,"control (percentage reduction in population, % action)",[1]; [2],Improved control
same,"control (percentage reduction in population, % action)",[1]; [3],Improved control
same,control level,[1]; then 400 ppm δ-endotoxin CryIIIa,≤ 60%
same,control level,[1]; then 400 ppm δ-endotoxin CryIa(c),≤ 60%
same,"control (percentage reduction in population, % action)",Nephotettix cincticeps; plot (a) rice plants expressing δ-endotoxin CryIA(b),Improved control
same,"control (percentage reduction in population, % action)",Nephotettix cincticeps; plot (a) rice plants expressing δ-endotoxin CryIA(c),Improved control
same,control level,Nephotettix cincticeps; then 400 ppm δ-endotoxin CryIA(b),≤ 60%
same,control level,Nephotettix cincticeps; then 400 ppm δ-endotoxin CryIA(c),≤ 60%
same,"control of the tested insects (percentage reduction in population or feeding damage, % action)",Heliothis virescens; comparison arm for CryIIIA cotton,insufficient
same,"control of the tested insects (percentage reduction in population or feeding damage, % action)",Heliothis virescens; comparison arm for CryIa(c) cotton,insufficient
